Laboratory results from paper PMC7374098, “Design of thienopyranone-based BET inhibitors that bind multiple synthetic lethality targets” (Scientific Reports, 2020).

Experiments:
BRD4BD1 = biological target: T1, BRD4BD1 (Homo sapiens, UniProt O60885); assay: AlphaScreen displacement binding assay with tetra-acetylated histone H4 peptide, BRD4BD1; details: for IC50: displacement of H4K5acK8acK12acK16ac peptide
T1 construct: His; purchased Reaction Biology
Method: (§1) In effort to enhance its potency, we designed a new set of chemotypes by in silico screening. […] These compounds were synthesized and their activities toward BRD4BD1 and BRD4BD2 were assessed in a displacement binding assay using the polyacetylated histone H4 peptide H4K5acK8acK12acK16ac as a ligand (Fig. 1b).
(§2) PI3K activity screening and IC50 measurements were performed by Life Technologies (Thermo Fisher Scientific) using ADAPTA, a fluorescence-based in vitro assay.

BRD4BD2 = biological target: T2, BRD4BD2 (Homo sapiens, UniProt O60885); assay: AlphaScreen displacement binding assay with tetra-acetylated histone H4 peptide, BRD4BD2; details: displacement of H4K5acK8acK12acK16ac peptide
T2 construct: His; purchased Reaction Biology
Method: as §1, §2

PI3Kα = biological target: T3, PI3Kα (Homo sapiens, UniProt P42336); assay: PI3K kinase screening assay (ADAPTA); format: biochemical
T3 construct: purchased Life Technologies (Thermo Fisher Scientific)
T3 sequence (P42336 whole entry): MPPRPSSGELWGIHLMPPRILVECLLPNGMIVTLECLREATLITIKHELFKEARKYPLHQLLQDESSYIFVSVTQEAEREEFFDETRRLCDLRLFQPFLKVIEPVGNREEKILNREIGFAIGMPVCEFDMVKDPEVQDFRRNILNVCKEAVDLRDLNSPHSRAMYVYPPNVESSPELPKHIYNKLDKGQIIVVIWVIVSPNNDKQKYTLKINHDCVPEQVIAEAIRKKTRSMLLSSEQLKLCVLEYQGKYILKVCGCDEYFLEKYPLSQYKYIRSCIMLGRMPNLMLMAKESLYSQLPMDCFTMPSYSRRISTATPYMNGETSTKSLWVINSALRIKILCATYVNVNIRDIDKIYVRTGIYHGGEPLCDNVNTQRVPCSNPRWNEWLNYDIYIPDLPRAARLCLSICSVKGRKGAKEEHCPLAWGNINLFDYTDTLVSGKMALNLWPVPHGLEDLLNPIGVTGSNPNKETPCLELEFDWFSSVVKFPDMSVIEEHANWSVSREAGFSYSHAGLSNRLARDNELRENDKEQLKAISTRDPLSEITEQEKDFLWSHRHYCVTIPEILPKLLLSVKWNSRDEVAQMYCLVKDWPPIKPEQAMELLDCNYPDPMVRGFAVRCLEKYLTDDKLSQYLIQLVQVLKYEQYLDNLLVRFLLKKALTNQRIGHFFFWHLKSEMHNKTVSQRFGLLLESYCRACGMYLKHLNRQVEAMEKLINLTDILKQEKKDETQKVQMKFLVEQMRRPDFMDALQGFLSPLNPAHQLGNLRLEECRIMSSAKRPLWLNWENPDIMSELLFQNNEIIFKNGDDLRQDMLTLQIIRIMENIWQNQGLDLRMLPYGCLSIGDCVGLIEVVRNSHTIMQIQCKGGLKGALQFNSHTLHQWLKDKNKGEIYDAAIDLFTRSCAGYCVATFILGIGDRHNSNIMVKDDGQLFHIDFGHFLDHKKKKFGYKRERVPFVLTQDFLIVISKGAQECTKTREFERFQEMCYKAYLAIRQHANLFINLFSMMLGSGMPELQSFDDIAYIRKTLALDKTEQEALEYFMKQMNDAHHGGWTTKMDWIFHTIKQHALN
T3 sequence (P27986 whole entry partner): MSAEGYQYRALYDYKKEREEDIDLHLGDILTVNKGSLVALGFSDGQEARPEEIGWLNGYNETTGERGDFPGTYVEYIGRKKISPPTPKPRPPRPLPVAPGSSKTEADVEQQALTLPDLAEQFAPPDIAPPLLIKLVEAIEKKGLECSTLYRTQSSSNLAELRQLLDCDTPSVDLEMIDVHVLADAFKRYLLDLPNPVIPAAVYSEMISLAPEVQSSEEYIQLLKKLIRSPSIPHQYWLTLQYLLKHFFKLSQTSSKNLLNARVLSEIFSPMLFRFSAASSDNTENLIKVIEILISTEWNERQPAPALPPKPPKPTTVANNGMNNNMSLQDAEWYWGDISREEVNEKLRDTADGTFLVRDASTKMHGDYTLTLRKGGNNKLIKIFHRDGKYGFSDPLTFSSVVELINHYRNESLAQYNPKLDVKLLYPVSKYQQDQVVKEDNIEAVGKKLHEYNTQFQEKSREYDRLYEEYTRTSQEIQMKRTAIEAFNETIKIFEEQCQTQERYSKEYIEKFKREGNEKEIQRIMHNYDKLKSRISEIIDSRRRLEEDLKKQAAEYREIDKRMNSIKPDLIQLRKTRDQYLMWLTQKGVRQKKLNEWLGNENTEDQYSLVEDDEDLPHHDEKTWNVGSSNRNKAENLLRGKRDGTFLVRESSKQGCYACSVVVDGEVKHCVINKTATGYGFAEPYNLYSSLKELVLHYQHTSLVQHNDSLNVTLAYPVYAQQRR
Method: as §1, §2

JeKo-1 cells [1] = assay: Propidium iodide flow cytometry cell cycle analysis, JeKo-1; format: cell-based; details: 24 h
Method: (§3) (Fig. 2a). […] Palbociclib was used as control given its known inhibition of CDK4/6 and resultant G1 cell cycle growth arrest. […] We next assessed the level of apoptosis by FITC-annexin V incorporation in each of these cell lines.
(§4) Huh7, CHLA-255, or Jeko-1 cells were seeded at 1.5 × 10^6 cells in 60-mm tissue culture dishes and allowed to adhere overnight. […] Cells were released with Accutase (Innovative Cell Technologies, San Diego, CA), washed with PBS and divided for either staining with the FITC Annexin V Apoptosis Detection Kit (BD Biosciences, San Jose, CA) or overnight fixation with ethanol followed by staining with propidium iodide (Roche, Basel, Switzerland) according to each manufacturers’ instructions. Cell staining was analyzed with the FACSCalibur flow cytometer (BD Biosciences) and FlowJo (FlowJo LLC, Ashland, Oregon) and ModFit LT (Verity Software House, Topsham, ME) software packages.

Huh7 cells [2] = assay: Propidium iodide flow cytometry cell cycle analysis, Huh7; format: cell-based; details: 24 h
Method: as §3, §4

CHLA-255 cells = assay: Propidium iodide flow cytometry cell cycle analysis, CHLA-255; format: cell-based; details: 24 h
Method: as §3, §4

Huh7 cells [3] = assay: FITC-annexin V apoptosis assay, Huh7; format: cell-based; details: treatment at the IC50, 24 h
Method: as §3, §4

[4] = test system: Huh7 subcutaneous xenografts; assay: Huh7 subcutaneous xenograft in NGS mice; format: in vivo; details: 30 mg/kg oral gavage, one week
Method: (§7) Asterisks denote p ≤ 0.05 in comparison with vehicle control by unpaired Student’s t test.
(§8) All procedures involving animals were approved by the UCSD Animal Care Committee, which serves to ensure that all federal guidelines concerning animal experimentation are met. Six to eight week old NGS mice were implanted with 10^7 Huh7 or Jeko-1 cells in the right flank. When tumors reached ∼100 mm^3 after tumor implantation, animals were divided into four groups (n = 8 per group). […] Mice were treated for 1 week by oral gavage, 5 times per week.

[5] = test system: JeKo-1 subcutaneous xenografts; assay: JeKo-1 subcutaneous xenograft in NGS mice; format: in vivo; details: 40 mg/kg oral gavage, one week
Method: as §7, §8

CDK4 = test system: CDK4; design: method as in PMID 32793389; details: previously identified; cited from earlier work
JeKo-1 cells [6] = assay: CellTiter-Glo cell viability assay, JeKo-1; format: cell-based; details: Homo sapiens, mantle cell lymphoma, 48 h, read-out: IC50 anti-proliferative activity, JeKo-1
Excerpt: (§5) Although many inhibitors of BRD4 have been developed, the importance of inhibition of both BDs to subdue pathological processes remains unclear, as the two bromodomains have high sequence similarity. We therefore examined whether inhibition of only one bromodomain of BRD4 could lead to sufficient anti-cancer effects.
(§6) All cell lines were obtained from ATCC and tested for mycoplasma and mouse pathogens and checked for authenticity against the International Cell Line Authentication Committee (ICLAC; https://iclac.org/databases/cross-contaminations/) list. Cell viability measurements were performed using CellTiter-Glo luminescent cell viability assay (Promega). […] Cell Titer Glow assay reagent (100 µl) was added to each well and incubated for 10 min at room temperature. Luminescence signal was measured in a Varioscan multimode reader.

Mino cells = assay: CellTiter-Glo cell viability assay, Mino; format: cell-based; details: Homo sapiens, mantle cell lymphoma, 48 h, read-out: IC50 anti-proliferative activity, Mino
Excerpt: as §5, §6

Z138 cells = assay: CellTiter-Glo cell viability assay, Z138; format: cell-based; details: Homo sapiens, Z-138, mantle cell lymphoma, 48 h, read-out: IC50 anti-proliferative activity, Z138
Excerpt: as §5, §6

SKNBE-2 cells = assay: CellTiter-Glo cell viability assay, SKNBE-2; format: cell-based; details: Homo sapiens, SKNBE2, 48 h, read-out: IC50 anti-proliferative activity, neuroblastoma (SKNBE-2)
Excerpt: as §5, §6

PC3 cells = assay: CellTiter-Glo cell viability assay, PC3; format: cell-based; details: PTEN mutated, 48 h
Excerpt: as §5, §6

[7] = test system: AKT phosphorylation at Ser473 (PI3K activity) in JeKo-1 cells; assay: Western blot of AKT phosphorylation at Ser473 in IgM-stimulated JeKo-1 cells; format: cell-based; details: JeKo-1 cells stimulated with IgM, 1 h incubation, increasing concentrations up to 5 µM
Method: as §5
Cells were resuspended with 1 ml of RPMI-1640 (serum free) and stimulated with 10 µg/ml of goat F(ab) 2 anti-human IgM antibody (Southern Biotech Birmingham, AL, USA) at 37 °C for 10 min. Cells were then harvested and lysed with RIPA buffer followed by Western blot analysis for pAKT expression.

HCT116 cells = assay: CellTiter-Glo cell viability assay, HCT116; format: cell-based; details: Homo sapiens, HCT-116, 48 h, read-out: IC50 anti-proliferative activity, colon carcinoma (HCT116)
Excerpt: as §5, §6

| IC50 (BRD4BD1) [µM] | IC50 (BRD4BD2) [µM] | IC50 (PI3Kα) [µM] | IC50 (SKNBE-2 cells) [µM] | Structure (SMILES) | IC50 (JeKo-1 cells [6]) [µM] | IC50 (Mino cells) [µM] | IC50 (Z138 cells) [µM] | cytotoxic activity in prostate cancer cell line PC3 (PC3 cells) | AKT phosphorylation at Ser473 [7] | also measured |
| --- | --- | --- | --- | --- | --- | --- | --- | --- | --- | --- |
| 0.388 | 15.7 | 48.7 | – | O=c1cc(N2CCNCC2)oc2c(-c3ccc4c(c3)OCCO4)csc12 [SF2523P] | – | – | – | – | – | – |
| – | – | – | – | CN(C)C(=O)c1cc2cnc(Nc3ccc(-c4csc5c(=O)cc(N6CCOCC6)oc45)cc3)nc2n1C1CCCC1 [SRX3177] | – | – | – | – | – | cell cycle arrest at higher doses (near the IC50), JeKo-1 (JeKo-1 cells [1]): induced G2 phase growth arrest; cell cycle arrest at low dosage (near the IC10), JeKo-1 (JeKo-1 cells [1]): induction of G1 cell cycle arrest; cell cycle arrest at higher doses (near the IC50), Huh7 (Huh7 cells [2]): induced G2 phase growth arrest; cell cycle arrest at low dosage (near the IC10), Huh7 (Huh7 cells [2]): induction of G1 cell cycle arrest; cell cycle arrest at low dosage (near the IC10), CHLA-255 (CHLA-255 cells): induction of G1 cell cycle arrest; induction of early apoptosis, Huh7 (Huh7 cells [3]): ~ threefold; tumor growth vs vehicle control, Huh7 xenograft [4]: significant abrogation of tumor growth; tumor growth vs vehicle control, JeKo-1 xenograft [5]: significant abrogation of tumor growth; mortality (mouse, in vivo, po): no treatment-related death; adverse effects / toxicity (oral gavage, one week): no adverse effects were noted; animal weight (oral gavage, one week, vs vehicle): remained the same; IC50 (CDK4): 0.0025 µM |
| 0.027 | 2.81 | 5.7 | 15 | O=C(NCc1cccnc1)c1cc(-c2csc3c(=O)cc(N4CCNCC4)oc23)cc2c1OCCO2 [SRX3212P] | 3.1 | 3.9 | 2.9 | Neither inhibitor sensitized | did not decrease AKT phosphorylation | – |
| 0.0037 | 0.032 | 0.022 | 3.2 | O=C(NCc1cccnc1)c1cc(-c2csc3c(=O)cc(N4CCOCC4)oc23)cc2c1OCCO2 [SRX3212] | 0.28 | 0.44 | 0.24 | Neither inhibitor sensitized | concomitant decrease in levels of AKT phosphorylation at Ser473 | increase in potency of SRX3212 compared to SRX3212P (BRD4BD1; BRD4BD1): sevenfold; IC50 (HCT116 cells): 1.3 µM |
